2 substances from US11976092B2, “RNA nanostructures, methods of making, and uses thereof” (Ohio State Innovation Foundation, priority 2018, dated 2024) can be followed below.

Data set [1] can be described thus: FIG. 31B. The text has this:
Table printed on a drawing sheet, FIG. 31B
The patent's description of the figure: FIGS. 31A and 31B show enzymatic stability of branched 3WJs modular RNA motifs. FIG. 31A. Serum degradation curve. FIG. 31B. Half life of 3WJs in 50% serum.
FIGS. 29A to 31B show design (FIGS. 29A and 29B), thermal stability (qPCR & TGGE, FIGS. 30A to 30C), and enzymatic stability (serum stability assay, FIGS. 31A and 31B) of branched 3WJs with different core and helix.

Data set [2] can be described thus: Apparent hydrodynamic diameter by DLS (Zetasizer nano-ZS). Format: physicochemical. To be noted: 25° C. The text has this:
The data was obtained from three independent measurements.

The subject of data set [3] is KB cells. In words: FITC Annexin V / PI apoptosis assay (FACS). The data set is classed as cell-based, Human. To be noted: 1 μM, 48 hr treatment. On the procedure: FITC Annexin V Apoptosis Detection Kit (BD Pharmingen) and Caspase-3 Assay Kit (BD Pharmingen) were used as previously reported to study cell apoptosis induced by pRNA-3WJ-PTX micelle treatment. For FITC Annexin V staining assay, KB cells were seeded in 12-well plates overnight. […] The controls include Paclitaxel, pRNA-3WJ micelles, and pRNA-3WJ. According to manufacturer instructions, 48 hr after incubation with the RNA micelles, KB cells were trypsinized to single cell suspension. After two PBS washes, the cells were resuspended in 100 μL 1× Annexin V-FITC binding buffer. Then 5 μL AnnexinV-FITC and 5 μL propidium iodide (PI) were added into each sample and incubated at room temperature for 25 min. The samples were finally added to a flow tube which contained 200 μL 1× binding buffer for FACS analysis within 1 hr.

Take “Phi29-Mod: 3WJ modular RNA motif, SEQ ID NOs:19-21 (chain 1 AUUCGCUGUGUGGUAGUG; chain 2 CACUACCACUUUGUCCUACG; chain 3 CGUAGGACCAGCGAAU; further chemistry not given here)”: in data set [1], the “t1/2” value is listed as 24 h. Regarding “pRNA-3WJ: phi29 pRNA three-way junction scaffold of a3WJ, b3WJ, c3WJ (SEQ ID NO:16-18), without lipophilic and therapeutic modules (chain 1 UUGCCAUGUGUAUGUGGG; chain 2 CCCACAUACUUUGUUGAUCC; chain 3 GGAUCAAUCAUGGCAA; 2'-fluoro at CU, RNA at AG, backbone not given here)”, the average hydrodynamic diameter in data set [2] is 7.466±1.215 nm. Besides, the cells undergoing apoptosis in data set [3] is given as 3.7%.
